From US9181234B2, “Antibacterial compounds” (priority 2010, dated 2015)
≈ marks a conversion by molar mass, not a printed value.

Tests used:
physchem = settings: for solubility at 24 h: kinetic from dmso stock
Description: Turbimetric Assay: Determination of Solubility
The solubility of the compounds was measured using a turbidimetric method. A series of doubling dilutions of compounds were prepared in neat dimethyl sulfoxide (DMSO). 5 μl samples were diluted twenty-fold into 95 μl volumes of 100 mM citrate buffer (pH 4), phosphate buffered saline (PBS, pH 7.4) or carbonate-bicarbonate buffer (pH 9) in microtitre assay plates and allowed to reach equilibrium at room temperature for 24 hours. The absorbance within each well of the plate was read spectrophotometrically at a wavelength of 620 nm. A precipitate forms when the maximum aqueous solubility level is reached. The value quoted is the highest concentration where the compound was in solution i.e. where no measurable precipitate was present. […] ND=not determined

[1] = test system: Staphylococcus aureus (Isolate ID ATCC 29213); assay: Antibacterial activity, MIC, S. aureus; type: cell-based; settings: broth microdilution or agar dilution; for MIC: Staphylococcus aureus, ATCC29213, Gram positive strain
Description: (§1) Bacterial Assay: Determination of Antibacterial Activity
(§2) Compounds of the invention were tested for antimicrobial activity by susceptibility testing in liquid or on solid media. MICs for compounds against each strain were determined by the broth microdilution or agar dilution method according to the guidelines of the Clinical Laboratories and Standards Institute, formerly the National Committee for Clinical Laboratory Standards (Clinical Laboratories and Standards Institute. Methods for Dilution Antimicrobial Susceptibility Tests for Bacteria That Grow Aerobically; Approved Standard—Seventh Edition. Document M7-A7. CLSI, Wayne, Pa., 2006; Clinical Laboratories and Standards Institute. The gram positive bacterial strains tested include S. aureus (Staphylococcus aureus (Isolate ID ATCC 29213)), E. faecalis (Enterococcus faecalis (Isolate ID ATCC 29212)) and S. pyogenes (Streptococcus pyogenes (Isolate ID ATCC 51339)). The gram negative bacterial strains tested include H. influenzae (Haemophilus influenzae (Isolate ID ATCC 49247))

[2] = test system: Streptococcus pyogenes (Isolate ID ATCC 51339); assay: Antibacterial activity, MIC, S. pyogenes; type: cell-based; settings: broth microdilution or agar dilution; for MIC: Streptococcus pyogenes, ATCC51339, Gram positive strain
Description: as §1, §2

[3] = test system: Haemophilus influenzae (Isolate ID ATCC 49247); assay: Antibacterial activity, MIC, H. influenzae; type: cell-based; settings: Gram negative strain, broth microdilution or agar dilution; for MIC: Haemophilus influenzae, ATCC49247
Description: as §1, §2

[4] = pH 7.4, aqueous buffer, Solubility (pH 7.4)
[5] = pH 7.4, aqueous buffer, Solubility Range
[6] = pH 9, aqueous buffer, Max Solubility
[7] = pH 9, aqueous buffer, Solubility Range (maximum solubility)
[8] = pH 7.4, aqueous buffer, Max Solubility
[9] = pH 7.4, aqueous buffer, Solubility Range (maximum solubility)

Row | Compound | solubility at 24 h (physchem; [4]) [mg/mL] | solubility at 24 h (physchem; [5]) [mg/mL] | solubility at 24 h (physchem; [6]) [mg/mL] | solubility at 24 h (physchem; [7]) [mg/mL] | MIC [1] [mg/L] | MIC [2] [mg/L] | MIC [3] [mg/L] | solubility at 24 h (physchem; [8]) [mg/mL] | solubility at 24 h (physchem; [9]) [mg/mL] | Solubility (pH 7.4) (physchem; 24 h, pH 7.4) [μg/mL] | Antibacterial Activity (MIC) S. aureus (ATCC 29213) ([1]; Gram positive strain) | Antibacterial Activity (MIC) S. pyogenes (ATCC 51339) ([2]; Gram positive strain) | Antibacterial Activity (MIC) H. influenzae (ATCC 49247) [3] | solubility at 24 h (physchem; pH 7.4, aqueous buffer, Solubility (pH 7.4), pH 7.4 (PBS), 24 hours at room temperature, turbidimetric) [mg/mL] | solubility at 24 h (physchem; pH 7.4, aqueous buffer, Solubility Range, pH 7.4) [mg/mL] | solubility at 24 h (physchem; pH 9, aqueous buffer, Max Solubility, maximum of pH 4, 7.4 and 9, shown at pH 9) [mg/mL] | solubility at 24 h (physchem; pH 9, aqueous buffer, Solubility Range (maximum solubility), maximum of pH 4, 7.4 and 9, shown at pH 9) [mg/mL]
1 | CCNC(=O)Nc1nc2cc(-c3cnc(N4CCC(C)(C(=O)O)CC4)nc3OC)cc(-c3ccccn3)c2s1 [Compound 220] | 0.05 (≈ 91.3 µM) | 0.0125 to 0.4 (≈ 22.8 to 730 µM) | 0.4 (≈ 730 µM) | 0.4 to 0.8 (≈ 730 to 1460 µM) | ≤ 0.25 | ≤ 0.25 | 1 to 16 (≈ 1.83 to 29.2 µM) | – | – | – | – | – | – | – | – | – | –
2 | CCNC(=O)Nc1nc2cc(-c3cnc(N4CCC(CC)(C(=O)O)CC4)s3)cc(-c3ccccn3)c2s1 [Compound 221, 4-Ethyl-1-[5-[2-(ethylcarbamoylamino)-7-(2-pyridyl)-1,3-benzothiazol-5-yl]thiazol-2-yl]piperidine-4-carboxylic acid] | ≥ 0.8 | > 0.8 | – | – | ≤ 0.25 | ≤ 0.25 | 1 to 16 (≈ 1.86 to 29.8 µM) | ≥ 0.8 | > 0.8 | – | – | – | – | – | – | – | –
3 | CCNC(=O)Nc1nc2cc(-c3cnc(NC4CCC(C)(C(=O)O)CC4)nc3)cc(-c3ccccn3)c2s1 (stereo not drawn) [Compound 222] | ≥ 0.8 | > 0.8 | – | – | ≤ 0.25 | ≤ 0.25 | 0.25 to 1 (≈ 0.47 to 1.88 µM) | ≥ 0.8 | > 0.8 | – | – | – | – | – | – | – | –
4 | CCNC(=O)Nc1nc2cc(-c3cnc(N4CCC(CC)(C(=O)O)CC4)nc3)cc(/C(CC)=N\OC)c2s1 [Compound 223, (E/Z)-4-ethyl-1-(5-(2-(3-ethylureido)-7-(1-(methoxyimino)propyl)benzo[d]thiazol-5-yl)pyrimidin-2-yl)piperidine-4-carboxylic acid] | – | – | 0.4 (≈ 741 µM) | 0.4 to 0.8 (≈ 741 to 1480 µM) | – | – | – | – | – | 100 | A (“A” activity ≦0.25 μg/mL) | A (“A” activity ≦0.25 μg/mL) | C (“C” activity >1.0 μg/mL-16 μg/mL) | – | – | – | –
5 | CCNC(=O)Nc1nc2cc(-c3cnc(N4CCC(CC)(C(=O)O)CC4)nc3)cc(/C(CC)=N/OC)c2s1 [Compound 224, 4-ethyl-1-[5-[2-(ethylcarbamoylamino)-7-[(E)-C-ethyl-N-methoxy-carbonimidoyl]-1,3-benzothiazol-5-yl]pyrimidin-2-yl]piperidine-4-carboxylic acid] | ≥ 0.8 | > 0.8 | – | – | ≤ 0.25 | ≤ 0.25 | 1 to 16 (≈ 1.85 to 29.6 µM) | ≥ 0.8 | > 0.8 | – | – | – | – | – | – | – | –
6 | CCNC(=O)Nc1nc2cc(-c3cnc(N4CCC(CC)(C(=O)O)CC4)nc3)cc(/C=N\OC)c2s1 [Compound 225, 4-Ethyl-1-[5-[2-(ethylcarbamoylamino)-7-[(Z)-methoxyiminomethyl]-1,3-benzothiazol-5-yl]pyrimidin-2-yl]piperidine-4-carboxylic acid] | ≥ 0.8 | > 0.8 | – | – | ≤ 0.25 | ≤ 0.25 | 0.25 to 1 (≈ 0.489 to 1.95 µM) | ≥ 0.8 | > 0.8 | – | – | – | – | – | – | – | –
7 | CCNC(=O)Nc1nc2cc(-c3cnc(N4CCC(CC)(C(=O)O)CC4)nc3)cc(-c3ncc(C)cn3)c2s1 [Compound 226] | ≥ 0.8 | > 0.8 | – | – | ≤ 0.25 | ≤ 0.25 | 0.25 to 1 (≈ 0.457 to 1.83 µM) | ≥ 0.8 | > 0.8 | – | – | – | – | – | – | – | –
8 | CCNC(=O)Nc1nc2cc(-c3cnc(N4CCC(C)(C(=O)O)CC4)nc3)cc(-n3cccn3)n2n1 [Compound 227, 1-(5-{2-[(ethylcarbamoyl)amino]-5-(1H-pyrazol-1-yl)[1,2,4]triazolo[1,5-a]pyridin-7-yl}pyrimidin-2-yl)-4-methylpiperidine-4-carboxylic acid] | 0.4 (≈ 815 µM) | 0.4 to 0.8 (≈ 815 to 1630 µM) | – | – | 1 to 16 (≈ 2.04 to 32.6 µM) | 1 to 16 (≈ 2.04 to 32.6 µM) | 1 to 16 (≈ 2.04 to 32.6 µM) | 0.4 (≈ 815 µM) | 0.4 to 0.8 (≈ 815 to 1630 µM) | – | – | – | – | – | – | – | –
9 | CCNC(=O)Nc1nc2cc(-c3cnc(N4CCC(CC)(C(=O)O)CC4)nc3)cc(-c3ncccn3)c2s1 [Compound 228] | 0.2 (≈ 375 µM) | 0.0125 to 0.4 (≈ 23.5 to 751 µM) | – | – | ≤ 0.25 | ≤ 0.25 | 1 to 16 (≈ 1.88 to 30 µM) | 0.2 (≈ 375 µM) | 0.0125 to 0.4 (≈ 23.5 to 751 µM) | – | – | – | – | – | – | – | –
10 | CCNC(=O)Nc1nc2cc(-c3cnc(N4CCC(CC)(C(=O)O)CC4)nc3)cc(-c3ccccn3)c2[nH]1 [Compound 229, 4-Ethyl-1-(5-(2-(3-ethylureido)-7-(pyridin-2-yl)-1H-benzoimidazol-5-yl)pyrimidin-2-yl)piperidine-4-carboxylic acid] | – | – | – | – | ≤ 0.25 | ≤ 0.25 | 1 to 16 (≈ 1.94 to 31.1 µM) | – | – | – | – | – | – | 0.1 (≈ 194 µM) | 0.0125 to 0.4 (≈ 24.3 to 777 µM) | 0.2 (≈ 389 µM) | 0.0125 to 0.4 (≈ 24.3 to 777 µM)
